Data taken from US8846024B2, “3′-[(2Z)-[1-(3,4-dimethylphenyl)-1,5-dihydro-3-methyl-5-oxo-4H-pyrazol-4-ylidene]hydrazino]-2′-hydroxy-[1,1′-biphenyl]-3-carboxylic acid bis-(monoethanolamine)” (GlaxoSmithKline LLC, priority 2002, dated 2014).
Converted amounts (≈) assume the structure as drawn. Where two headings read alike, the source gives them in different places.

Assays:
[1] = Relative solubilities in water, 0.1% HCl and methanol; type: physicochemical; conditions: 25 °C, 25 deg
Method: The solubility of 3′-[(2Z)-[1-(3,4-dimethylphenyl)-1,5-dihydro-3-methyl-5-oxo-4H-pyrazol-4-ylidene]hydrazino]-2′-hydroxy-[1,1′-biphenyl]-3-carboxylic acid as the free acid (Compound A) and as the bis-(monoethanolamine) salt (Compound B) was determined in three different systems: water, 0.1 HCl and methanol.

[2] = Solubility of the free acid in water (stated in description); type: physicochemical; conditions: stated as approximate in the description
[3] = organic solvent or mixture, solvent methanol, read-out: Solubility at 25 deg, methanol
[4] = simulated gastric fluid, solvent 0.1% HCl, read-out: Solubility at 25 deg, 0.1% HCl
[5] = solvent water, read-out: Solubility at 25 deg, Water

Row | solubility [1, 3] | solubility [1, 4] | solubility [1, 5] | Structure (SMILES) | solubility in water [2]
1 | 6400 µg/mL | < 1 µg/mL | 14200 µg/mL | CC1=NN(c2ccc(C)c(C)c2)C(=O)/C1=N\Nc1cccc(-c2cccc(C(=O)O)c2)c1O.NCCO.NCCO [Compound B, 3′-[(2Z)-[1-(3,4-dimethylphenyl)-1,5-dihydro-3-methyl-5-oxo-4H-pyrazol-4-ylidene]hydrazino]-2′-hydroxy-[1,1′-biphenyl]-3-carboxylic acid bis-(monoethanolamine)] | 
2 | 1900 µg/mL (≈ 4290 µM) | < 1 µg/mL | < 1 µg/mL | CC1=NN(c2ccc(C)c(C)c2)C(=O)/C1=N\Nc1cccc(-c2cccc(C(=O)O)c2)c1O [Compound A, 3′-[(2Z)-[1-(3,4-dimethylphenyl)-1,5-dihydro-3-methyl-5-oxo-4H-pyrazol-4-ylidene]hydrazino]-2′-hydroxy-[1,1′-biphenyl]-3-carboxylic acid] | approximately 5 micrograms per milliliter
